# Experimental data taken from ChEMBL document CHEMBL1154283, “Chrotacumines A-D, chromone alkaloids from Dysoxylum acutangulum” (J Nat Prod, 2009).
# pIC50: −log10 of the molar value.
# Experiments:
# Type in all cases: functional, cell-based
# HL-60 = experiment: Cytotoxicity against human HL60 cells after 48 hrs by MTT assay; details: HL-60, 48 h
# HCT-116 = experiment: Cytotoxicity against human HCT116 cells after 48 hrs by MTT assay; details: HCT-116, 48 h
# NCI-H226 = experiment: Cytotoxicity against human NCI-H226 cells after 48 hrs by MTT assay; details: NCI-H226, 48 h
# MCF7 = experiment: Cytotoxicity against human MCF7 cells after 48 hrs by MTT assay; details: MCF7, 48 h
# A549 = experiment: Cytotoxicity against human A549 cells after 48 hrs by MTT assay; details: A549, 48 h
Compound,pIC50 (HL-60),pIC50 (HCT-116),pIC50 (NCI-H226),pIC50 (MCF7),pIC50 (A549)
Cc1cc(=O)c2c(O)cc3c(c2o1)[C@@H]1C[C@H](O3)N(C)C[C@H]1OC(=O)c1ccccc1 [CHROTACUMINE A],< 5.00,,,,
C/C=C(\C)C(=O)O[C@@H]1CN(C)CC[C@@H]1c1c(O)cc(O)c2c(=O)cc(C)oc12 [CHROTACUMINE B],< 5.00,,,,
COc1cc(C(=O)O[C@@H]2CN(C)CC[C@@H]2c2c(O)cc(O)c3c(=O)cc(C)oc23)cc(OC)c1OC [CHROTACUMINE C],< 5.00,,,,
COc1ccc(C(=O)O[C@@H]2CN(C)CC[C@@H]2c2c(O)cc(O)c3c(=O)cc(C)oc23)cc1OC [CHROTACUMINE D],< 5.00,,,,
Cc1cc(=O)c2c(O)cc(O)c([C@H]3CCN(C)C[C@H]3O)c2o1 [ROHITUKINE],5.12,5.06,< 5.00,< 5.00,< 5.00
